What was measured:
isolated rat aorta = settings: in vitro; even after the drug has been removed for 6 hours; cited from earlier work
[1] = cited from earlier work
[2] = system: conscious renal hypertensive dogs; test: Lercanidipine and enalapril in renal hypertensive dogs (two-kidney, two clip); assay type: in vivo, beagle dogs
Description: Male beagle dogs, 10-12 months old and weighing between 10-11 kg, were used. All dogs were trained for several weeks, to comply unstressfully to the test environment. Chronic sustained hypertension was induced in 4 dogs by bilateral renal artery constriction, according to the Goldblatt method “two-kidney, two clip hypertension”. Briefly, under sodium pentobarbital anaesthesia (35 mg/kg i.v.) during two different surgical interventions 15 days apart from each other, in sterile conditions, both renal arteries were clipped with original renal silver clips and narrowed by about 60-70%. After two months from the last intervention, an experimental renal hypertension was produced and the animals were used for the implantation of catheter.
Under sodium pentobarbital anaesthesia (35 mg/kg i.v.), in sterile conditions, the dogs were catheterized by inserting a sensor tipped catheter (Mikro-Tip) into the ascending aorta through the right femoral artery. The catheter was subcutaneously exteriorized at the back of the neck.
After a week recovery time from surgery, the animals were placed in a dog restrained unit, composed by a frame and a dog sling hammock, and connected to the pressure transducers in order to monitor the arterial blood pressure.
All the animals were alternatively treated with vehicle, lercanidipine, enalapril and the combination of lercanidipine and enalapril. The drugs were administered by oral gavage in a volume of 1 ml/kg at the following dosages:
(2) lercanidipine (0.5 mg/kg)
(4) lercanidipine […] enalapril (0.5 mg/kg +3 mg/kg)
Blood pressure (systolic and diastolic) was monitored up to 6 h after the administration. Statistical analysis was performed from time 0 to time 360 min. To evaluate the statistical differences among the treatments, data were analyzed using a three-way ANOVA with repeated measures on factor time and pre-planned multiple comparisons. Statistical analysis was performed by means of GLM (general linear model procedure) with SAS software version 6.12.

[3] = lercanidipine 0.5 mg/kg oral, 15 min
[4] = lercanidipine 0.5 mg/kg oral, 30 min
[5] = lercanidipine 0.5 mg/kg oral, 45 min
[6] = lercanidipine 0.5 mg/kg oral, 60 min
[7] = lercanidipine 0.5 mg/kg oral, 90 min
[8] = lercanidipine 0.5 mg/kg oral, 120 min
[9] = lercanidipine 0.5 mg/kg oral, 150 min
[10] = lercanidipine 0.5 mg/kg oral, 180 min
[11] = lercanidipine 0.5 mg/kg oral, 240 min
[12] = lercanidipine 0.5 mg/kg oral, 360 min
[13] = lercanidipine 0.5 mg/kg oral, Basal
[14] = enalapril 3 mg/kg oral, 120 min
[15] = enalapril 3 mg/kg oral, 150 min
[16] = enalapril 3 mg/kg oral, 180 min
[17] = enalapril 3 mg/kg oral, 240 min
[18] = enalapril 3 mg/kg oral, 360 min

COC(=O)C1=C(C)NC(C)=C(C(=O)OC(C)(C)CN(C)CCC(c2ccccc2)c2ccccc2)C1c1cccc([N+](=O)[O-])c1 (centres unmarked) [lercanidipine, methyl 1,1,N-trimethyl-N-(3,3-diphenylpropyl)-2-aminoethyl 1,4-dihydro-2,6-dimethyl-4-(3-nitrophenyl)pyridine-3,5-dicarboxylate]
isolated rat aorta response to high K+ (isolated rat aorta): attenuated | time of peak plasma levels ([1]; following oral dosing): 2 to 3 h | DBP (diastolic blood pressure) [2, 3]: 107.0 ± 5.8 mmHg | SBP (systolic blood pressure) [2, 3]: 152.5 ± 6.6 mmHg | DBP (diastolic blood pressure) [2, 4]: 95.3 ± 3.6 c mmHg | SBP (systolic blood pressure) [2, 4]: 142.5 ± 4.8 b mmHg | DBP (diastolic blood pressure) [2, 5]: 89.0 ± 4.8 c mmHg | SBP (systolic blood pressure) [2, 5]: 138.3 ± 5.1 c mmHg | DBP (diastolic blood pressure) [2, 6]: 87.5 ± 6.3 c mmHg | SBP (systolic blood pressure) [2, 6]: 142.3 ± 7.4 a mmHg | DBP (diastolic blood pressure) [2, 7]: 87.3 ± 5.3 c mmHg | SBP (systolic blood pressure) [2, 7]: 138.3 ± 5.7 c mmHg | DBP (diastolic blood pressure) [2, 8]: 93.0 ± 5.6 c mmHg | SBP (systolic blood pressure) [2, 8]: 140.5 ± 5.9 b mmHg | DBP (diastolic blood pressure) [2, 9]: 94.0 ± 7.2 c mmHg | SBP (systolic blood pressure) [2, 9]: 139.3 ± 10.1 c mmHg | DBP (diastolic blood pressure) [2, 10]: 96.8 ± 5.1 c mmHg | SBP (systolic blood pressure) [2, 10]: 141.0 ± 7.2 b mmHg | DBP (diastolic blood pressure) [2, 11]: 104.0 ± 5.0 a mmHg | SBP (systolic blood pressure) [2, 11]: 144.8 ± 6.8 a mmHg | DBP (diastolic blood pressure) [2, 12]: 108.0 ± 3.5 mmHg | SBP (systolic blood pressure) [2, 12]: 150.0 ± 6.8 mmHg | DBP (diastolic blood pressure) [2, 13]: 117.5 ± 5.2 mmHg | SBP (systolic blood pressure) [2, 13]: 161.3 ± 3.8 mmHg

CCOC(=O)[C@H](CCc1ccccc1)N[C@@H](C)C(=O)N1CCC[C@H]1C(=O)O [enalapril, (S)-1-[N-1-(ethoxycarbonyl)-3-phenylpropyl]-L-alanyl-L-proline]
time of peak plasma levels of enalaprilat ([1]; following oral administration of enalapril): 3 to 4 h | DBP (diastolic blood pressure) ([2]; enalapril 3 mg/kg oral, 15 min): 114.5 ± 4.9 mmHg | SBP (systolic blood pressure) ([2]; enalapril 3 mg/kg oral, 15 min): 162.8 ± 4.8 mmHg | DBP (diastolic blood pressure) ([2]; enalapril 3 mg/kg oral, 30 min): 114.0 ± 4.7 mmHg | SBP (systolic blood pressure) ([2]; enalapril 3 mg/kg oral, 30 min): 160.3 ± 4.1 mmHg | DBP (diastolic blood pressure) ([2]; enalapril 3 mg/kg oral, 45 min): 110.3 ± 4.7 mmHg | SBP (systolic blood pressure) ([2]; enalapril 3 mg/kg oral, 45 min): 158.0 ± 5.6 mmHg | DBP (diastolic blood pressure) ([2]; enalapril 3 mg/kg oral, 60 min): 105.3 ± 5.6 a mmHg | SBP (systolic blood pressure) ([2]; enalapril 3 mg/kg oral, 60 min): 158.0 ± 6.4 mmHg | DBP (diastolic blood pressure) ([2]; enalapril 3 mg/kg oral, 90 min): 107.5 ± 3.2 mmHg | SBP (systolic blood pressure) ([2]; enalapril 3 mg/kg oral, 90 min): 159.0 ± 5.8 mmHg | DBP (diastolic blood pressure) [2, 14]: 105.0 ± 5.3 b mmHg | SBP (systolic blood pressure) [2, 14]: 153.5 ± 7.5 mmHg | DBP (diastolic blood pressure) [2, 15]: 108.3 ± 4.5 a mmHg | SBP (systolic blood pressure) [2, 15]: 158.5 ± 5.7 mmHg | DBP (diastolic blood pressure) [2, 16]: 110.5 ± 3.6 mmHg | SBP (systolic blood pressure) [2, 16]: 158.8 ± 5.5 mmHg | DBP (diastolic blood pressure) [2, 17]: 116.0 ± 3.3 mmHg | SBP (systolic blood pressure) [2, 17]: 161.3 ± 7.2 mmHg | DBP (diastolic blood pressure) [2, 18]: 111.8 ± 4.3 mmHg | SBP (systolic blood pressure) [2, 18]: 158.8 ± 5.9 mmHg | DBP (diastolic blood pressure) ([2]; enalapril 3 mg/kg oral, Basal): 120.0 ± 4.2 mmHg | SBP (systolic blood pressure) ([2]; enalapril 3 mg/kg oral, Basal): 164.8 ± 3.5 mmHg
